We go through 3 compounds from patent US4049495A, “Physiologically active substances and fermentative process for producing the same” (Sankyo Company Limited, priority 1974, dated 1977).

For data set [1], the system named is cholesterol and neutral lipid levels in blood serum. The data set can be described thus: lowering of cholesterol and neutral lipid in blood serum of rats, oral ML-236A in gum arabic. The format is in vivo. To be noted: 5 mg./kg. in gum arabic, vs gum arabic alone. As to the method:
2. Two of four groups of rats, each group consisting of 5 animals, were orally given one dose of 5 mg./kg. of ML-236A suspended in gum arabic. After 3 hours and 18 hours from administration, animals were sacrificed by bleeding and blood was collected. Cholesterol and neutral lipid levels in blood serum were determined by a conventional method.

For data set [2], the system named is cholesterol biosynthesis. In words: inhibition of cholesterol biosynthesis in vitro (rat liver slice, radioactive acetic acid). The format is cell-based. To be noted: 1 h, 37° C., 60 minutes, read-out: concentration exhibiting about 50% inhibition of cholesterol biosynthesis. As to the method: I. The activity in vitro on inhibition of cholesterol biosynthesis of the substances ML-236 may be assayed by the following method. Slice of rat liver and radioactive acetic acid are brought to interaction at 37° C. for 60 minutes, the radioactive cholesterol thus biosynthesized is saponified and separated as precipitates with digitonin and then its radioactivity is measured to determine the produced cholesterol amount. Separately, the same procedures as above are employed except that ML-236 is added at the beginning of the reaction, thereby the biosynthesized cholesterol amount being determined. Thus, an effect of ML-236 can be quantitively determined. (See Bricker et al.: The Journal of Biological Chemistry, 247, 4914, 1972).

The nature of data set [3]: solubility in organic solvents. The format is physicochemical.
Data set [4] has as its system cholesterol levels in blood and liver. In words: lowering of cholesterol in blood and liver of Triton WR 1339-treated rats. The format is in vivo. To be noted: 20 mg./kg. intraperitoneal, with Triton WR 1339 200 mg./kg. i.v., 24 hours, vs Triton alone. As to the method: 1. One of two groups of rats having an average weight of about 200 g., each group consisting of 5 animals, was individually given by intraveneous injection with 200 mg./kg. of Triton WR 1339 (trade name; available from Ruger Chemical Co., Ltd., U.S.A.; having an activity of increasing cholesterol level in blood) simultaneously with intraperitoneal administration of 20 mg./kg. of ML-236B. After 24 hours from administration, rats were sacrificed by bleeding, blood and liver were collected and their cholesterol and neutral lipid levels were determined by a conventional method.

The subject of data set [5] is cholesterol and neutral lipid levels in blood serum. In words: lowering of cholesterol and neutral lipid in blood serum of rats, oral ML-236B in physiological saline. The format is in vivo. As to conditions: 80 mg./kg. powdery in physiological saline solution, vs saline. As to the method:
Moreover, one of two other groups of rats, each group consisting of 5 animals, were orally given 80 mg./kg. of powdery ML-236B in the form of a physiological saline solution. After 3 hours from administration, cholesterol and neutral lipid levels in blood serum were determined in the same manner as above.

Setting [6] is: in methanol, ethanol, acetone, ethyl acetate, chloroform and benzene.
[7] abbreviates: in n-hexane and petroleum ether.

Each structure is given as a SMILES string. Converted amounts (≈) assume the structure as drawn.

On to `CC1C=CC2=CCCC(O)C2C1CCC1CC(O)CC(=O)O1` (centres unmarked) [ML-236A], for which, in data set [1] (3 hours), the “lowering of cholesterol level in blood serum after 3 hours” value was determined as 13.5% and the “lowering of neutral lipid level in blood serum after 3 hours” value stood at 49.5%. Further, in data set [1] (18 hours), the “lowering of cholesterol level in blood serum after 18 hours” value was 13.5% and the “lowering of neutral lipid level in blood serum after 18 hours” value is “not observed”. The IC50 in data set [2] was roughly 0.04 µg/mL (≈ 0.131 µM). Further, the Solubility entry in data set [3] (setting [6]) is listed as “Soluble”. For the same compound, the Solubility result in data set [3] (setting [7]) is listed as “Insoluble”.

Take `CCC(C)C(=O)OC1CCC=C2C=CC(C)C(CCC3CC(O)CC(=O)O3)C21` (centres unmarked) [ML-236B]: in data set [4], the “lowering of cholesterol level in blood” value amounted to 14.2% and the “lowering of cholesterol level in liver” value is given as 10.1%. Further, the IC50 in data set [2] is roughly 0.01 µg/mL (≈ 0.0256 µM). Besides, in data set [3] (setting [6]), the Solubility result is “Soluble”. Besides, the Solubility result in data set [3] (setting [7]) is listed as “Insoluble”. Moreover, in data set [5], the “lowering of cholesterol level in blood serum after 3 hours” value is listed as 20.0% and the “lowering of neutral lipid level in blood serum after 3 hours” value was determined as 44.2%.

In the case of `CC1C=CC2=CCCCC2C1CCC1CC(O)CC(=O)O1` (centres unmarked) [ML-236C], the IC50 in data set [2] is roughly 0.08 µg/mL (≈ 0.275 µM). Further, the Solubility result in data set [3] (setting [6]) was “Soluble”; in data set [3] (setting [7]), “Insoluble”.
